The target of assay [1] is T1, TRPML1 (Homo sapiens, UniProt Q9GZU1).
T1 construct: expressed in transfected cells
The experiment in a line: TRPML1 automated patch-clamp (QPatch 16X). Conditions: HEK T-REx/GcaMP6f/TRPML1 cells, current with compound/current in vehicle, extracellular pH 4.6. It counts as cell-based. The procedure: TRPML1—Automated Patch-Clamp
HEK T-REx/GcaMP6f/TRPML1 cells were cultured in DMEM High Glucose (Lonza BioWhittaker cat. BE12-604F/U1; 500 mL) supplemented with Fetal Bovine Serum TET-FREE (Euroclone cat. EC S0182L; 50 mL, Penicillin-Streptomycin (BioWhittaker, cat. DE17-602E; 5 mL of 100× Solution), G418 (Sigma, cat. G8168; 0.25 mg/ml) and Zeocyn (InvivoGen, cat. ant-zn-1; 50 μg/ml).
HEK T-REx/GcaMP6f/TRPML1 cells were seeded 48 or 72 hours before experiment, at a concentration of 8*10^6/4*10^6 cells onto a T225 flask. Just before the experiments, cells were washed twice with D-PBS w/o Ca^2+/Mg^2+ (Euroclone cat. ECB4004L) and detached from the flask with trypsin-EDTA (Sigma cat. T4174; diluted 1/10). Cells were then re-suspended in the suspension solution: 25 mL EX-CELL ACF CHO medium(Sigma cat. C5467); 0.625 mL HEPES (Sigma cat. H0887); 0.25 mL of 100× Penicillin/Streptomycin (Euroclone cat. ECB3001D), 0.1 mL of Soybean Trypsin Inhibitor 10 mg/mL (Sigma cat. T6522) and placed on the QPatch 16X.
Dilution from stock were prepared just before the experiments in the extracellular solution (0.25% final DMSO concentration). DMSO solution was obtained from AppliChem (cat. A3672)
Patch Clamp Solutions: • Intracellular solution (mM): 120 CsMeSO3, 4 NaCl, 2 MgCl2, 10 EGTA, 20 HEPES, 2 Mg-ATP (pH 7.2 with CsOH). • Extracellular solution (mM): 140 NaGluconate, 5 KCl, 1 MgCl2, 2 CaCl2), 10 Glucose, 10 MES (pH 4.6 with HCl).
Patch Clamp Analysis—QPatch 16X
For the voltage clamp experiments on TRPML1, data were sampled at 5 KHz. After establishment of the seal and the passage in the whole cell configuration, the cells were held at −20 mV and the TRPML1 current was evoked using the voltage protocol illustrated in FIG. 2, applied every 5 sec. (50 ms at −20 mV; 20 ms at −120 mV, 1000 ms ramp from −120 to […]; 20 ms at +40 mV, and back to −20 mV); in the absence (vehicle period, i.e. 0.25% DMSO) and in the presence of increasing concentrations (3) of the compound under investigation.
Agonists: For data collection, the Sophion proprietary software was used and the analysis was performed off-line using Excel and GraphPad Prism (V 8.00). Results are reported in Table 6, expressed as TRPML1 current fold increase evoked by the compound under investigation (i.e. current in the presence of the compound/current in vehicle).

Assay [2] addresses T1, TRPML1. The experiment in a line: TRPML1 manual patch clamp on isolated enlarged endolysosomes. It counts as cell-based. Particulars: whole-endolysosome recording, HEK T-REx/GcaMP6f/TRPML1 cells, luminal pH 4.6. The procedure:
TRPML1 —Manual Patch Clamp
Endolysosomal electrophysiology was performed in isolated enlarged endolysosomes using a modified patch-clamp method (Dong et al., 2010). HEK T-REx/GcaMP6f/TRPML1 cells were treated with […] PIKfive inhibitor overnight. Whole-endolysosome recordings were performed on manually isolated enlarged endolysosomes (Dong et al., 2010). In brief, a patch pipette was pressed against a cell and quickly pulled away to slice the cell membrane. Enlarged endolysosomes were released into a dish and a gigaseal between the patch pipette and the enlarged endolysosome was obtained. Negative pressure or voltage steps of several hundred millivolts with millisecond duration were then applied to break into the vacuolar membrane.
Bath (internal/cytoplasmic) solution contained 140 mM K-gluconate, 4 mM NaCl, 1 mM EGTA, 2 mM MgCl2, 0.39 mM CaCl2), 20 mM HEPES (pH was adjusted with KOH to 7.2). The pipette (luminal) solution was standard extracellular solution (modified Tyrode's: 145 mM NaCl, 5 mM KCl, 2 mM CaCl2), 1 mM MgCl2, 10 mM HEPES, 10 mM MES, 10 mM glucose; the pH was adjusted with NaOH to pH 4.6).
Dilution from stock were prepared just before the experiments in the extracellular solution (0.1% final DMSO concentration). DMSO solution was obtained from AppliChem (cat. A3672).
All bath solutions were applied via a perfusion system that allowed us to achieve complete solution exchange within a few seconds.
Data were collected using an HEKA EPC 10 patch-clamp amplifier, and PatchMaster v2x73.5 software (HEKA Elektronik). Whole-endolysosome currents were digitized at 20 kHz. All experiments were conducted at room temperature, and all recordings were analyzed with pClamp 10.7 (Molecular Devices) and GraphPad Prism (V8.00).
TRPML1 current was evoked using the voltage protocol illustrated in FIG. 3, applied every 5 sec. (10 ms at −80 mV; 500 ms ramp from −120 to +40 mV; 10 ms at −80 mV); in the absence (vehicle period, i.e. 0.1% DMSO) and in the presence of the compound (agonist) under investigation.
On the technique in general: The patch-clamp technique gives a direct electrical read-out from membranes.

T1 sequence (Q9GZU1 whole entry): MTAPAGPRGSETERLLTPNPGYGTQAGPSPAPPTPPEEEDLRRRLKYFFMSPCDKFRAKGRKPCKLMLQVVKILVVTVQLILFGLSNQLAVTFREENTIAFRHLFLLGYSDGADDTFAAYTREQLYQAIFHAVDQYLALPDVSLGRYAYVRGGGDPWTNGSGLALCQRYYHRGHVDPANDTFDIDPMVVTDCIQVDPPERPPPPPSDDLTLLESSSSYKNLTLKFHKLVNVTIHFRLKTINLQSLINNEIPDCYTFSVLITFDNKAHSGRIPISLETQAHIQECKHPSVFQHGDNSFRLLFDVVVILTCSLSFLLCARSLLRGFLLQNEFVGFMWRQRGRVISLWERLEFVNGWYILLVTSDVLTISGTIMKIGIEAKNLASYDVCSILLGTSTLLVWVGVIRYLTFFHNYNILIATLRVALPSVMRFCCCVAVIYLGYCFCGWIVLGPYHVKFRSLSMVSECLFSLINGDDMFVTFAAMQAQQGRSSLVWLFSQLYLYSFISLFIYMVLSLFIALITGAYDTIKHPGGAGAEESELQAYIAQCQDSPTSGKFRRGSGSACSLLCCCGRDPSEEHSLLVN

Turning to `CN(C)S(=O)(=O)c1ccc(S(=O)(=O)Nc2ccccc2N2CCN(C(=O)OC(C)(C)C)CC2)cc1` [Example 13, tert-butyl 4-{2-[4-(dimethylsulfamoyl)benzenesulfonamido]phenyl}piperazine-1-carboxylate], the “Qpatch Assay TRPML1 agonism Current fold increase Mean ± SEM (n)” value was 13.5 ± 4.8 (4) in assay [1] (0.3 μM compound), 208 ± 15.7 (4) in assay [1] (3.0 μM compound) and 244 ± 27.6 (4) in assay [1] (30 μM compound). For the same molecule, in assay [2] (30.0 uM compound), the “Lysosomal Patch-Clamp Current fold increase Mean ± SEM (n)” value is 27.5 ± 10.8 (2).

On to `CN(C)S(=O)(=O)c1ccc(S(=O)(=O)NC2CCCCC2N2CCC(Oc3ccccc3)CC2)cc1` (racemic) [Example 57, N1,N1-dimethyl-N4-[2-(4-phenoxypiperidin-1-yl)cyclohexyl]benzene-1,4-disulfonamide], for which the entries for the “Qpatch Assay TRPML1 agonism Current fold increase Mean ± SEM (n)” value in assay [1] (0.3 μM compound), in assay [1] (3.0 μM compound) and in assay [1] (30 μM compound) were 0.39 ± 0.14 (2), 0.86 ± 0.68 (2) and 4.3 ± 2.2 (2), respectively. The “Lysosomal Patch-Clamp Current fold increase Mean ± SEM (n)” value in assay [2] (2.0 uM compound) is 18.0 ± 8.5 (3).

On to `CN(C)S(=O)(=O)c1ccc(S(=O)(=O)Nc2ccccc2N2CCCCC2)cc1` [Example 6, N1,N1-dimethyl-N4-[2-(piperidin-1-yl)phenyl]benzene-1,4-disulfonamide], for which the “Qpatch Assay TRPML1 agonism Current fold increase Mean ± SEM (n)” value was 1.0 ± 0.77 (3) in assay [1] (0.3 μM compound) and 32.7 ± 8.9 (3) in assay [1] (3.0 μM compound). Moreover, the “Lysosomal Patch-Clamp Current fold increase Mean ± SEM (n)” value in assay [2] (2.0 uM compound) is 3.3 ± 0.67 (3).

In the case of `CN(C)S(=O)(=O)c1ccc(S(=O)(=O)Nc2ccccc2N2CCC(C(=O)OC(C)(C)C)CC2)cc1` [Example 76, f-butyl 1-{2-[4-(dimethylsulfamoyl)benzenesulfonamido]phenyl}piperidine-4-carboxylate], the “Qpatch Assay TRPML1 agonism Current fold increase Mean ± SEM (n)” value in assay [1] (0.3 μM compound) is 35.6 ± 26.7 (3); in assay [1] (3.0 μM compound), 38.5 ± 24.8 (2); in assay [1] (30 μM compound), 52.7 ± 36.3 (2).

In the case of `CN(C)S(=O)(=O)c1ccc(S(=O)(=O)Nc2ccccc2N2CCC(Oc3cnccn3)CC2)cc1` [Example 77, N1,N1-dimethyl-N4-{2-[4-(pyrazin-2-yloxy)piperidin-1-yl]phenyl} benzene-1,4-disulfonamide], the “Qpatch Assay TRPML1 agonism Current fold increase Mean ± SEM (n)” value in assay [1] (0.3 μM compound) was 74.4 ± 13.8 (3); in assay [1] (3.0 μM compound), 167 ± 10.7 (3); in assay [1] (30 μM compound), 168 ± 9.8 (3).

For `CN(C)S(=O)(=O)c1ccc(S(=O)(=O)Nc2ccccc2N2CCC(Oc3ccccn3)CC2)cc1` [Example 75, N1,N1-dimethyl-N4-{2-[4-(pyridin-2-yloxy)piperidin-1-yl]phenyl}benzene-1,4-disulfonamide], the “Qpatch Assay TRPML1 agonism Current fold increase Mean ± SEM (n)” value in assay [1] (0.3 μM compound) is 310 ± 147 (4); in assay [1] (3.0 μM compound), 435 ± 172 (4); in assay [1] (30 μM compound), 603 ± 155 (3).

(Values after patent publication US20230010299A1, “HETEROCYCLIC TRPML1 AGONISTS” (LIBRA THERAPEUTICS, INC., priority 2019, published 2023).)
